Measured values from PMC11506481, “Influence of Harvesting Stage on Phytochemical Composition, Antioxidant, and Antidiabetic Activity of Immature Ceratonia siliqua L. Pulp from Béni Mellal-Khénifra Region, Morocco: In Silico, In Vitro, and In Vivo Approaches” (Current Issues in Molecular Biology, 2024).
In brackets after ≈: the same amount, converted by molar mass.

Biological target: T1, intestinal α-glucosidase
T1 construct: gene MAL12; human 5NN8 only used for docking
Test: sucrose hydrolysis, GOD-POD glucose read-out at […] nm
Format: biochemical
Conditions: sucrose as substrate; phosphate buffer pH 7.5; 37 °C

IC50: 0.089 ± 0.004 µg/mL (≈ 0.138 µM)
Compound: C[C@H]1O[C@H](O[C@H]2[C@H](O)[C@@H](O)[C@@H](O[C@H]3[C@H](O)[C@@H](O)C(O)O[C@@H]3CO)O[C@@H]2CO)[C@H](O)[C@@H](O)[C@@H]1N[C@H]1C=C(CO)[C@@H](O)[C@H](O)[C@H]1O (stereo partly shown) [acarbose]
